The values that follow are results of earlier work, collected in patent US10729634B2, “Sex hormone-binding globulin for use as a medicament” (FUNDACIÓ HOSPITAL UNIVERSITARI VALL D'HEBRON—INSTITUT DE …, priority 2013, dated 2020).

The test system of data set [1] is HepG2 hepatoblastoma cells. To be noted: positive control, 3 μM; cited from earlier work.
The conditions of data set [2]: cited from earlier work.

Structures are written as SMILES.

Consider `CC(C)NCC(O)c1ccc(O)c(O)c1` (stereo not shown) [Isoproterenol], for which the lipolysis result in data set [1] is “induces lipolysis”.

Regarding `C[C@H]1CNCCc2ccc(Cl)cc21` [Lorcaserin], in data set [2] (over a year), the “average weight loss greater than placebo” value is on record as 3.1 kg and the “average weight loss greater than placebo, of body mass” value is 3%.

For the compound `CCCCCCCCCCC[C@@H](C[C@@H]1OC(=O)[C@H]1CCCCCC)OC(=O)[C@H](CC(C)C)NC=O` [orlistat], the side effects entry in data set [2] (in vivo) is listed as “associated with gastrointestinal side effects”.
